Laboratory results taken from patent publication US20260315416A1, “PHENYLLACTIC ACID COMPOSITIONS AND RELATED METHODS OF USE” (priority 2023, published 2026).
Converted amounts (≈) assume the structure as drawn.

Legend:
[1] = system: cervicovaginal epithelial barrier; details: cited from earlier work
[2] = Equilibrium (saturation) solubility in water; assay type: physicochemical; details: room temperature, HPLC; for saturation/equilibrium solubility in water: 24 h, 1440 min
Description: To evaluate the purity of the synthesized D- or L-PLA ILs and for the determination of their water solubility, a reverse phase-HPLC method was developed. The HPLC apparatus consisted of a Shimadzu LC2050C-3D system with a PDA detector. Samples were run through a C18 precolumn and a Gemini C18 reverse-phase column [150×4.5 mm (ID.)] with 5 μm particle size packing (Phenomenex, Torrance, CA). The mobile phase contained acetonitrile and 20 mM phosphoric acid solution in water (25:75). The flow rate of the mobile phase was at 0.8 mL/min, the column oven was set at 45° C., the injection volume was 10 μL, and the detection was carried out at 210 nm. The retention time for PLA was 5.5 min. For the standard curve, D- or L-PLA stock solutions (0.1 mg/mL) were prepared in methanol. The stock solutions were diluted to obtain solutions of various concentrations. The standard curve was obtained by injecting 5-25 μg/mL of PLA. All the experiments were performed in triplicate.
(§1) The equilibrium solubility of D-PLA, L-PLA, and their ILs was determined using a previously reported method.^30 An excess amount of D-PLA, L-PLA, or their ILs was added in an Eppendorf tube along with 1 mL of water. The sample was placed on an orbital shaker and was equilibrated at room temperature for 24 h with a speed of 200 rpm. After 24 h, the samples were centrifuged, the supernatant was filtered using a 0.22 μm syringe filter and further diluted using methanol as necessary. The D-PLA or L-PLA content in the supernatant was analyzed using the HPLC method to calculate the equilibrium solubility. Further, the pH values of D-PLA, L-PLA, and their ILs dissolved in water were determined using a VWR 1100L pH meter.

[3] = Thermogravimetric analysis (TGA), thermal stability; assay type: physicochemical; details: 30-350° C. at 10° C./min, nitrogen
Description: TA Instruments Discovery TGA 5500 (TA instruments, New Castle, DE, USA) was used to analyse pure PLA, carnitine, and various PLA ILs. The samples were accurately weighed (2-5 mg) in platinum pans and placed onto the autosampler. The samples were heated from 30° C. to 350° C. at 10° C./min; nitrogen was purged at a rate of 25 mL/min. TRIOS software (TA instruments, New Castle, DE, USA) was used to analyse the data.

[4] = Kinetic solubility in water; assay type: physicochemical; details: vs equilibrium solubility
bacteria and fungi = details: D-PLA vs L-PLA; cited from earlier work
[5] = system: peroxisome proliferator-activated receptor γ (PPAR-γ); details: mouse model, early-life antibiotic exposure and high-fat diet; cited from earlier work
[6] = system: Salmonella enterica serovar Typhimurium-induced colitis; details: mice; cited from earlier work
[7] = system: urogenital pathogens (Streptococcus agalactiae, Klebsiella pneumoniae, Candida albicans); details: in vitro; gram-positive, gram-negative and fungal urogenital pathogens; cited from earlier work
[8] = pH determination of PLA ILs dissolved in water; assay type: physicochemical
Description: as §1

[9] = Differential scanning calorimetry (DSC), glass transition temperature; assay type: physicochemical; details: cool/heat 5° C./min, 30 to −80° C.
Description: The TA Instruments DSC 2500 RCS40 cooling unit (TA instruments, New Castle, DE, USA), calibrated with indium, was used to record thermograms of pure compounds of D-PLA, L-PLA, carnitine, and their corresponding ILs. The samples were weighed (6-10 mg) and hermetically sealed in Tzero aluminium pans, along with an empty reference Tzero pan. The atmosphere was inert because of nitrogen purge at a rate of 25 mL/min. The samples were heated from 30° C. to the temperature equivalent to a 5% weight loss point with a 5° C./min ramp for each sample to observe thermal transitions. The glass transition temperature (Tg) for each sample was recorded in the cool/heat run at 5° C./min ramp from 30° C. to −80° C., and from −80° C. to 30° C. TRIOS software (TA instruments, New Castle, DE, USA) was used to analyse the data.

[10] = system: human cervical epithelial cells (A2EN); test: Crystal violet staining for cervical cell morphology; assay type: cell-based; details: 24 h; even at 100 mM
Description: (§2) Human endocervical epithelial cell line (A2EN), generated from human endocervical explant tissue^31, was cultured as monolayers in keratinocyte serum-free medium (KFSM) supplemented with recombinant epidermal growth factor (5 ng/ml), bovine pituitary extract (50 μg/ml; Gibco), CaCl2 ([…]; Sigma-Aldrich), and primocin (100 μg/ml; InvivoGen, San Diego, CA), herein referred to as A2 medium, at 37° C. under 5% carbon dioxide (CO2) atmosphere.
(§3) Prior to cytotoxicity testing, PLA ILs were diluted to 1 M concentrations with distilled water and filtered using a sterile 0.2 μm syringe filter. Solutions with pH ranging from 4 to 7.5 were prepared by adjusting the pH of A2 media with hydrochloric acid (HCl), following filtration using a sterile 0.2 μm syringe filter.
Cervical cell morphology following PLA IL treatment was visualised using 2.3% crystal violet stain with 0.1% ammonium oxalate and 20% ethanol (Sigma-Aldrich). Cervical cell monolayers were seeded into a tissue-treated 24-well microtiter plate (Falcon) at a density of 1.5×10^5 cells/well and incubated for 24 h at 37° C. under 5% CO2. Two-fold serial dilutions of each PLA IL were prepared and aliquoted into respective wells to obtain final concentrations of 3.125 to 100 mM. Deionised water and 1% Conceptrol (v/v), containing the detergent, nonoxynol-9, were used as negative and positive controls, respectively. […]

[11] = system: human cervical epithelial cells (A2EN); test: MTT assay for cervical cell proliferation/viability; assay type: cell-based; details: 24 h; even at 50 mM
Description: as §2, §3
Cervical cell monolayers were seeded into a tissue-treated 96-well microtiter plate (Corning Costar) at a density of 2.0×10^4 cells/well and incubated for 24 h at 37° C. under 5% CO2. Cells were treated with each PLA IL at concentrations ranging to 3.125 to 100 mM and incubated for 24 h (37° C. under 5% CO2). […] Absorbance was measured at 570 nm (reference 650 nm) and recorded using the Safire II Multi-Mode Microplate reader (Tecan, Mannedorf, Switzerland). Percentage cell viability was calculated as [sample absorbance−media background absorbance]/[control absorbance−media background absorbance]×100. […]

T5% (onset temperature at 5% mass loss) [3] [°C] | SMILES | saturation/equilibrium solubility in water [2] [mg/mL] | solubility thermodynamic at 24 h [2] [mg/mL] | kinetic solubility in water [4] | other results
 | CC(O)C(=O)O (centres unmarked) [lactic acid] |  |  |  | anti-inflammatory activity [1]: anti-inflammatory activity; epithelial barrier integrity ([1]; physiological concentrations, tight junction protein expression): enhance cervicovaginal epithelial barrier integrity
156.07 | O=C(O)[C@@H](O)Cc1ccccc1 [L-PLA] | > 25 | 25.7 ± 1.02 (≈ 154 mM) | considerably lower | 
 | O=C(O)[C@H](O)Cc1ccccc1 [D-PLA] | > 25 | 33.1 ± 0.44 (≈ 199 mM) | considerably lower | antimicrobial activity of enantiomer (bacteria and fungi): greater antimicrobial activity than L-PLA
 | O=C(O)C(O)Cc1ccccc1 (centres unmarked) [PLA, 2-hydroxy-3-phenylpropanoic acid] |  |  | low kinetic solubility in water | PPAR-γ activity [5]: upregulates intestinal peroxisome proliferator-activated receptor γ (PPAR-γ) activity; protection against colitis [6]: protect against Salmonella enterica serovar Typhimurium-induced colitis in mice; antimicrobial properties [7]: exhibits antimicrobial properties
189.9 | C[N+](C)(C)C[C@H](O)CC(=O)[O-] [carnitine] |  |  |  | 

SMILES | T5% (onset temperature at 5% mass loss) [3] [°C] | saturation/equilibrium solubility in water [2] [mg/mL] | solubility thermodynamic at 24 h [2] [mg/mL] | kinetic solubility in water [4] | other results
C[N+](C)(C)CCO.O=C([O-])[C@H](O)Cc1ccccc1 [Chol:D-PLA (1:1)] | 94.3 |  |  |  | pH [8]: ~ 9; glass transition temperature (Tg) [9]: −63.53 °C; morphological changes [10]: no morphological changes were observed; cell viability [11]: did not significantly reduce cervical epithelial cell viability
